Measurements as given in patent US20200148617A1, “GEMCABENE, PHARMACEUTICALLY ACCEPTABLE SALTS THEREOF, COMPOSITIONS THEREOF AND METHODS OF USE THEREFOR” (GEMPHIRE THERAPEUTICS INC., priority 2017, published 2020).
Where two headings read alike, the source gives them in different places.

Key:
[1] = Steady-state plasma gemcabene pharmacokinetics, 600 mg daily, healthy female subjects; assay type: in vivo; details: human, oral
Protocol: (§1) An open-label, two-sequence, cross-over study to assess the steady-state effects of gemcabene on the single-dose pharmacokinetics (PK) of oral contraceptive tablets in healthy female subjects was conducted with 300 mg tablets containing gemcabene calcium salt hydrate Crystal Form 1 having PSD90 of 52 μm (Tablet F).
(§2) The population for this study was generally healthy, adult female subjects of childbearing potential (≥18 to ≤35 years of age). This population supports the overall objective of the study to evaluate the effect of 600 mg of gemcabene calcium salt hydrate Crystal Form 1 having PSD90 of 52 μm at steady-state on the PK of a single dose of ON 1/35 (Ortho Novum 1/35; combined ethinyl estradiol/norethindrone oral contraceptive). The primary objective of this study was to assess the effect of daily 600 mg of gemcabene calcium salt hydrate Crystal Form 1 having PSD90 of 52 μm at steady-state on the pharmacokinetics (PK) of ON 1/35. The secondary objectives of this study were to assess the safety and tolerability of daily gemcabene 600 mg in combination with a single-dose ON 1/35 and to assess the steady-state PK of 600 mg of gemcabene calcium salt hydrate Crystal Form 1 having PSD90 of 52 μm (Tablet F×2).
Gemcabene calcium salt hydrate Crystal Form 1 having PSD90 of 52 μm was administered orally as a single dose of 600 mg, given as two 300 mg tablets (300-mg Tablet F×2) (with 240 mL of water). Gemcabene calcium salt hydrate Crystal Form 1 having PSD90 of 52 μm (600 mg) was administered at the same time each day.

[2] = Steady-state pharmacokinetics of gemcabene at 300, 600, 900 mg/day in FH patients; assay type: in vivo, human; details: for Cmax / AUC(0-t) / CL/F: mean
Protocol: This was an open-label, dose-finding, 3-period, 3-treatment study using successively escalating doses of 300 mg, 600 mg, and 900 mg gemcabene calcium salt hydrate Crystal Form 1 having PSD90 of 52 μm in patients clinically diagnosed with familial hypercholesterolemia (FH). The treatment plan was for each of 8 patients to receive each of the successive doses, daily, for 4 weeks at a time with no interruption in gemcabene calcium salt hydrate Crystal Form 1 dosing between the dose levels. That is, the 8 FH patients were administered daily oral doses of gemcabene calcium salt hydrate Crystal Form 1 having PSD90 of 52 μm at 300 mg/day on Days 1-28, 600 mg/day on Days 29-56, and 900 mg/day on Days 57-84. Pharmacokinetic plasma samples were collected pre-dose and 0.5, 1, 2, 3, 5, and 12 hours post-dose on Day 28, Day 56, and Day 84. Additional (trough) samples were collected pre-dose on Day 14, Day 42, Day 70, and at the Early Termination Visit (if applicable). Plasma from these samples were analyzed for gemcabene concentrations and the data used for PK analysis. Plasma sample concentrations were available for pharmacokinetic analysis for all but 1 patient for whom no results were reported following the 900 mg dose on Day 84. Since there were no days off between dose levels, the starting plasma concentration for the 600 mg and 900 mg treatment periods was the steady state concentration for 300 mg and 600 mg, respectively.
During Days 1-28, patients received one 300-mg strength tablet containing gemcabene calcium salt hydrate Crystal Form 1 having PSD90 of 52 μm (Tablet D); during the Days 29-56, patients received two 300-mg strength tablets (2× Tablet D); and during the Days 57-84, patients received three 300-mg strength tablets (3× Tablet D) per day.
PK parameter estimates were derived by standard non-compartmental analysis methods using a validated installation of Phoenix® WinNonlin® version 6.4. The actual sampling times were used in the PK parameter calculations.
All plasma concentrations reported as missing were treated as missing. Steady state was assumed following QD administration for 28 days and therefore, plasma gemcabene concentrations at 24 hours post-dose were used as the pre-dose concentrations.
The following gemcabene PK parameters were calculated for each patient from the plasma concentration-time data:
AUClast and AUC(0-24) were calculated by numeric integration using the trapezoidal rule with linear up and log down interpolation.
The criterion for dose proportionality is 95% CI around the slope containing the value “1”.
The individual patient and gemcabene concentration-time data are listed using the number of significant digits or decimal places provided by the bioanalytical lab and nominal sample times, and summarized descriptively in tabular formats by dose level, and visit (for trough samples).

[3] = female, human, in vivo
Protocol: as §1
as §2, with “F×2). […]” for “F×2).”

Compound `CC(C)(CCCCOCCCCC(C)(C)C(=O)O)C(=O)O` [gemcabene, 6-(5-carboxy-5-methyl-hexyloxy)-2,2-dimethyl-hexanoic acid] has a concentration at 6 day ([1]; Day 6, Treatment B, read-out: mean plasma gemcabene trough concentration) of 98.8 µg/mL, a concentration at 7 day ([1]; Day 7, Treatment B, read-out: mean plasma gemcabene trough concentration) of 106 µg/mL and a concentration at 8 day ([1]; Day 8, Treatment B, read-out: mean plasma gemcabene trough concentration) of 104 µg/mL. The Cmax ([1]; steady state, read-out: mean Cmax,ss) was 178 µg/mL, the “dose proportionality of AUC(0-24)” value ([2]; 300 mg/day to 900 mg/day) was “increased dose proportionally” and the “dose proportionality of Cmax” value ([2]; 300 mg/day to 900 mg/day) was “slightly less than dose proportional”. For the same compound, the Cmax ([2]; human, oral, 300 mg/day (Tablet D), Day 28 steady state, FH patients, plasma, n=8) was 84.8 µg/mL, the Cmax ([2]; human, oral, 600 mg/day (2× Tablet D), Day 56 steady state, FH patients, plasma, n=8) was 149 µg/mL and the Cmax ([2]; human, oral, 900 mg/day (3× Tablet D), Day 84 steady state, FH patients, plasma, n=7) was 195 µg/mL. The AUC(0-t) ([2]; human, plasma, oral, 300 mg/day, 300 mg/day (Tablet D), steady state, FH patients, n=8, read-out: AUC0-24) was 1550 µg·h/mL, the AUC(0-t) ([2]; human, plasma, oral, 300 mg/day, 300 mg/day (Tablet D), steady state, FH patients, n=8, read-out: AUClast) was 1590 µg·h/mL and the AUC(0-t) ([2]; human, plasma, oral, 600 mg/day, 600 mg/day (2× Tablet D), steady state, FH patients, n=8, read-out: AUC0-24) was 2680 µg·h/mL. For the same compound, the AUC(0-t) ([2]; human, plasma, oral, 600 mg/day, 600 mg/day (2× Tablet D), steady state, FH patients, n=8, read-out: AUClast) was 2700 µg·h/mL, the AUC(0-t) ([2]; human, plasma, oral, 900 mg/day, 900 mg/day (3× Tablet D), steady state, FH patients, n=7, read-out: AUC0-24) was 3530 µg·h/mL and the AUC(0-t) ([2]; human, plasma, oral, 900 mg/day, 900 mg/day (3× Tablet D), steady state, FH patients, n=7, read-out: AUClast) was 3490 µg·h/mL. The Tmax ([2]; human, plasma, oral, 300 mg dose level, after 28 daily doses, min-max 1.0-2.0 h, read-out: Median Tmax) was 1.6 h, the CL/F ([2]; human, plasma, oral, 300 mg/day (Tablet D), steady state, FH patients, n=8) was 3.55 mL/min and the Tmax ([2]; human, plasma, oral, 300 mg/day (Tablet D), steady state, FH patients, median, n=8, read-out: Tmax) was 1.6 h. For the same compound, the Tmax ([2]; human, plasma, oral, 600 mg dose level, after 28 daily doses, min-max 0.93-3.0 h, read-out: Median Tmax) was 1.5 h, the CL/F ([2]; human, plasma, oral, 600 mg/day (2× Tablet D), steady state, FH patients, n=8) was 3.9 mL/min and the Tmax ([2]; human, plasma, oral, 600 mg/day (2× Tablet D), steady state, FH patients, median, n=8, read-out: Tmax) was 1.5 h. The Tmax ([2]; human, plasma, oral, 900 mg dose level, after 28 daily doses, min-max 0.98-3.0 h, read-out: Median Tmax) was 1.9 h, the CL/F ([2]; human, plasma, oral, 900 mg/day (3× Tablet D), steady state, FH patients, n=7) was 4.52 mL/min and the Tmax ([2]; human, plasma, oral, 900 mg/day (3× Tablet D), steady state, FH patients, median, n=7, read-out: Tmax) was 1.9 h. The concentration at 14 day of the 900 mg/day period ([2]; human, plasma, oral, 900 mg/day treatment period, Day 14, read-out: trough gemcabene plasma concentration, patient 006-003) was 122 µg/mL, the concentration at 28 day of the 900 mg/day period ([2]; human, plasma, oral, 900 mg/day treatment period, Day 28, read-out: trough gemcabene plasma concentration, patient 006-003) was 43.5 µg/mL and the Tmax ([2]; human, plasma, oral, 300 to 900 mg/day, read-out: median Tmax values across dose levels) was 1.5 to 1.9 h. The “subjects with drug-related TEAE (constipation)” value [3] was 1 subject.
